Calls of active or inactive are those of the source. The calls are words filed in the database; no cut-off is given here.
Legend:
[1] = test system: Plasma; assay: Reduction in soluble amyloid beta42 in C57BL/6J mouse plasma at 100 mg/kg, po after 3 hrs by ELISA relative to vehicle treated control; assay type: functional
[2] = test system: neuronal; assay: Inhibition of amyloid beta40 production in rat neuronal cells assessed as maximal inhibition at 3 uM after 3 days by ELISA; assay type: cell-based
[3] = Metabolic stability in rat hepatic microsomes by LC/MS/MS analysis; assay type: ADME, Liver, Microsome; details: read-out: CLH
[4] = test system: neuronal; assay: Inhibition of amyloid beta40 production in rat neuronal cells assessed as inflection point after 3 days by ELISA; assay type: cell-based
[5] = test system: Brain; assay: Reduction in soluble amyloid beta42 in C57BL/6J mouse brain at 100 mg/kg, po after 3 hrs by ELISA relative to vehicle treated control; assay type: functional
[6] = test system: Mus musculus; assay: Oral bioavailability in C57BL/6J mouse at 1 mg/kg cassette dosing; assay type: ADME, organism-based; details: in vivo
[7] = test system: Brain; assay: Reduction in soluble amyloid beta40 in C57BL/6J mouse brain at 100 mg/kg, po after 3 hrs by ELISA relative to vehicle treated control; assay type: functional
[8] = Volume of distribution at steady state in C57BL/6J mouse at 0.1 mg/kg, iv cassette dosing; assay type: ADME, organism-based; parameters: dose 0.1 mg/kg, route intravenous; details: in vivo, read-out: Vdss
[9] = target: Amyloid-beta precursor protein (Homo sapiens) (UniProt P05067); assay: Inhibition of amyloid beta40 production in human IMR32 cell by ELISA; assay type: functional, cell-based; details: IMR-32
[10] = test system: Mus musculus; assay: AUC in C57BL/6J mouse at 1 mg/kg, po cassette dosing; assay type: ADME, organism-based, Plasma; parameters: dose 1 mg/kg, route oral; details: in vivo
[11] = test system: IMR-32; assay: Inhibition of total amyloid beta production in human IMR32 cell by ELISA; assay type: functional, cell-based
[12] = test system: Plasma; assay: Reduction in soluble amyloid beta40 in C57BL/6J mouse plasma at 100 mg/kg, po after 3 hrs by ELISA relative to vehicle treated control; assay type: functional
[13] = Cmax in C57BL/6J mouse at 1 mg/kg, po cassette dosing; assay type: ADME, organism-based; parameters: dose 1 mg/kg, route oral; details: in vivo
[14] = Mean residence time in C57BL/6J mouse at 1 mg/kg, po cassette dosing; assay type: ADME, organism-based; parameters: dose 1 mg/kg, route oral; details: in vivo
[15] = target: Amyloid-beta precursor protein (Homo sapiens) (UniProt P05067); assay: Inhibition of amyloid beta42 production in human IMR32 cell by ELISA; assay type: functional, cell-based; details: IMR-32

Amyloid-beta precursor protein (Homo sapiens), sequence (P05067 whole entry): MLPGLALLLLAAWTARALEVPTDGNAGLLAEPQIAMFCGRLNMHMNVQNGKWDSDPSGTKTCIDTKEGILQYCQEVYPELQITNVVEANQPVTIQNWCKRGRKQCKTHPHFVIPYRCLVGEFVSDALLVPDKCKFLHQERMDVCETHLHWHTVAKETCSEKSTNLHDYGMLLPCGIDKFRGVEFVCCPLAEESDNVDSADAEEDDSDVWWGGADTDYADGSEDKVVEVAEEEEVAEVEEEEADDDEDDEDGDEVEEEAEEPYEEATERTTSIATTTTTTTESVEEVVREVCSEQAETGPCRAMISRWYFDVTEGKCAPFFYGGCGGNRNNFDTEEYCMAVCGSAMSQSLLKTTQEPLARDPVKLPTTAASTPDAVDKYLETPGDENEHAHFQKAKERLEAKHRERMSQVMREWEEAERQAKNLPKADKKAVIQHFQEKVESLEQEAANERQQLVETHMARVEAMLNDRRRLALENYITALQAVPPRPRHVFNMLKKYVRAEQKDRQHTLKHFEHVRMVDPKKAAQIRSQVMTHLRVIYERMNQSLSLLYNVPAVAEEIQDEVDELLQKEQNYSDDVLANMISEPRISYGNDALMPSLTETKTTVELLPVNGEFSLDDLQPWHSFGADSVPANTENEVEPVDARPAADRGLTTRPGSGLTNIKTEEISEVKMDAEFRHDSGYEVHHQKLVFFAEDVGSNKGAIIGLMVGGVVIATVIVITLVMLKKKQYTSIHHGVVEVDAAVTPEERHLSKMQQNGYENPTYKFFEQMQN

Row | Structure (SMILES) | microsomal CLint [3] | inhibition [2] | Activity [4] | other results
1 | COc1cc(N2CCN(C(=O)CN3CCc4ccccc43)CC2)ccc1-c1cnc(C)o1 | 160 µL/min/mg | 52% | 290 nM | 
2 | COc1cc(N2CCN(C(=O)Cn3cnc4cccc(C(F)(F)F)c43)CC2)ccc1-c1cnc(C)o1 | 7 µL/min/mg | 46% | 420 nM | 
3 | COc1cc(N2CCN(C(=O)Cn3cnc4ccccc43)CC2)ccc1-c1cnc(C)o1 | 22 µL/min/mg | 71% | 93 nM | 
4 | COc1cc(N2CCN(C(=O)Cn3ncc4ccccc43)CC2)ccc1-c1cnc(C)o1 | 77 µL/min/mg | 49% | 170 nM | 
5 | COc1cc(N2CCN(C(=O)Cn3cnc4ccc(C(F)(F)F)cc43)CC2)ccc1-c1cnc(C)o1 | 23 µL/min/mg | 50% | 65 nM | 
6 | COc1cc(N2CCN(C(=O)Cn3nnc4ccccc43)CC2)ccc1-c1cnc(C)o1 | 27 µL/min/mg | 47% | 210 nM | 
7 | COc1cc(N2CCN(C(=O)Cn3cnc4cc(C(F)(F)F)ccc43)CC2)ccc1-c1cnc(C)o1 | 66 µL/min/mg | 61% | 50 nM | 
8 | COc1cc(N2CCN(C(=O)CN3Cc4ccccc4C3)CC2)ccc1-c1cnc(C)o1 | 42 µL/min/mg | 48% | 620 nM | 
9 | COc1cc(N2CCN(C(=O)Cn3cnc4c(C(F)(F)F)cccc43)CC2)ccc1-c1cnc(C)o1 | 12 µL/min/mg | 53% | 110 nM | 

Second part, led by results:

Row | microsomal CLint [3] | Structure (SMILES) | inhibition [2] | Activity [4] | other results
10 | 150 µL/min/mg | COc1cc(N2CCN(C(=O)N[C@@H](C)c3cccc4ccccc34)CC2)ccc1-n1cnc(C)c1 | 57% | 56 nM | inhibition in vivo at 100 mg/kg [1]: 16%; inhibition in vivo at 100 mg/kg [5]: 4%
11 | 67 µL/min/mg | COc1cc(N2CCN(C(=O)Cn3cnc4cc(C(F)(F)F)ccc43)C[C@@H]2C)ccc1-c1cnc(C)o1 | 60% | 21 nM | F [6]: 46%; % of control at 100 mg/kg [7]: 105%; Vd [8]: 0.36 L/kg; inhibition in vivo at 100 mg/kg [1]: 36%; inhibition [9]: inactive; AUC [10]: 3930 ng·h/mL; inhibition [11]: inactive; % of control at 100 mg/kg [12]: 106%; Cmax [13]: 773 ng/mL; inhibition in vivo at 100 mg/kg [5]: 41%; MRT [14]: 3.26 h; inhibition [15]: Dose-dependent effect
12 | 150 µL/min/mg | COc1cc(N2CCN(C(=O)N[C@@H](C)c3cccc4ccccc34)C[C@H]2C)ccc1-c1cnc(C)o1 | 65% | 56 nM | 
13 | 170 µL/min/mg | COc1cc(C2CCN(C(=O)N[C@@H](C)c3cccc4ccccc34)CC2)ccc1-c1cnc(C)o1 | 61% | 260 nM | 
14 | 140 µL/min/mg | COc1cc(N2CCN(C(=O)Cn3ccc4ccccc43)CC2)ccc1-c1cnc(C)o1 | 50% | 180 nM | 
15 | 160 µL/min/mg | COc1cc(N2CCN(C(=O)NCc3cccc4ccccc34)CC2)ccc1-c1cnc(C)o1 | 59% | 50 nM | 
16 | 130 µL/min/mg | COc1cc(N2CCN(C(=O)N[C@@H](C)c3cccc4ccccc34)CC2)ccc1-c1cnc(C)o1 | 67% | 34 nM | 
17 | 230 µL/min/mg | COc1cc(N2CCN(C(=O)N[C@@H](C)c3cccc4ccccc34)CC2)ccc1-n1cc(C)nn1 | 47% | 450 nM | 
18 | 240 µL/min/mg | COc1cc(N2CCCN(C(=O)N[C@@H](C)c3cccc4ccccc34)CC2)ccc1-c1cnc(C)o1 | 57% | 38 nM | 
19 | 150 µL/min/mg | COc1cc(N2CCN(C(=O)N[C@@H](C)c3cccc4ccccc34)CC2)ccc1-c1cnn(C)c1 | 63% | 180 nM | 
20 | 150 µL/min/mg | COc1cc(N2CCN(C(=O)N[C@@H](C)c3cccc4ccccc34)C[C@@H]2C)ccc1-c1cnc(C)o1 | 64% | 21 nM | 
21 | 110 µL/min/mg | COc1cc(N2CCN(C(=O)N[C@@H](C)c3cccc4ccccc34)CC2)ccc1-n1cnc(C)n1 | 68% | 170 nM | 
22 | 50 µL/min/mg | COc1cc(N2CCN(C(=O)Cn3cnc4ccc(C(F)(F)F)cc43)C[C@@H]2C)ccc1-c1cnc(C)o1 | 46% | 30 nM | 

— ChEMBL document CHEMBL3400145, “Design and synthesis of piperazine derivatives as a novel class of γ-secretase modulators that selectively lower Aβ₄₂ production” (Bioorg Med Chem, 2015)
